Data from ChEMBL document CHEMBL1150976, “The selectivity of protein kinase inhibitors: a further update” (Biochem J, 2007).

Key:
[1] = target: Proto-oncogene tyrosine-protein kinase Src (Gallus gallus, UniProt P00523); assay: Inhibition of Src in the presence of 50uM ATP
[2] = target: Homeodomain-interacting protein kinase 2 (Homo sapiens) (UniProt Q9H2X6); assay: Percentage HIPK2 activity remaining in the presence of 3uM inhibitor
[3] = target: T1, Mitogen-activated protein kinase 13 (Homo sapiens) (UniProt O15264); assay: Percentage p38delta activity remaining in the presence of 3uM inhibitor
T1 sequence (whole entry): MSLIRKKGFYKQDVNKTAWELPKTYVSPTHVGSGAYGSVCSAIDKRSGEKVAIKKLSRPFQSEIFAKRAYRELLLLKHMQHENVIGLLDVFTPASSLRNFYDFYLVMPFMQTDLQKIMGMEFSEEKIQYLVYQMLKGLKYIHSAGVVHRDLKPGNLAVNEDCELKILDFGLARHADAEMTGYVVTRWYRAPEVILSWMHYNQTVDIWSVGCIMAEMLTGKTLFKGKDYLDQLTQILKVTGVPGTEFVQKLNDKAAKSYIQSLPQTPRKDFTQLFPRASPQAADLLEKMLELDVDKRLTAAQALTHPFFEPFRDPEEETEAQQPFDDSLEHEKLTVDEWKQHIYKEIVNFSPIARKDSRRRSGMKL

[4] = target: T2, Mitogen-activated protein kinase 12 (Homo sapiens) (UniProt P53778); assay: Percentage p38-gamma activity remaining in the presence of 3uM inhibitor
T2 sequence (whole entry): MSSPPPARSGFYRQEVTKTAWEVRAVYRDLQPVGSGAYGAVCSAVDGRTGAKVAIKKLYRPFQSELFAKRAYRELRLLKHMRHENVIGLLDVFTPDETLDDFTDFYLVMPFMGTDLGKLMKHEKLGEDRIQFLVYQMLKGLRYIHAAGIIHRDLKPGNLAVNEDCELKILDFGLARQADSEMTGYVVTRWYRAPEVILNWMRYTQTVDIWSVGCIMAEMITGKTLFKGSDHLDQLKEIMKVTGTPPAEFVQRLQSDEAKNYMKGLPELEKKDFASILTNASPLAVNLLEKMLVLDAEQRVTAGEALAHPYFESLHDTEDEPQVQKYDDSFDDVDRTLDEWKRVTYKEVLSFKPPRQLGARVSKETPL

[5] = target: Protein kinase C alpha type (Homo sapiens) (UniProt P17252); assay: Percentage PKCalpha activity remaining in the presence of 3uM inhibitor
[6] = target: Serine/threonine-protein kinase N2 (Homo sapiens) (UniProt Q16513); assay: Percentage PRK2 activity remaining in the presence of 3uM inhibitor
Chain of Serine/threonine-protein kinase N2 (Homo sapiens) (Q16513 whole entry, looked up): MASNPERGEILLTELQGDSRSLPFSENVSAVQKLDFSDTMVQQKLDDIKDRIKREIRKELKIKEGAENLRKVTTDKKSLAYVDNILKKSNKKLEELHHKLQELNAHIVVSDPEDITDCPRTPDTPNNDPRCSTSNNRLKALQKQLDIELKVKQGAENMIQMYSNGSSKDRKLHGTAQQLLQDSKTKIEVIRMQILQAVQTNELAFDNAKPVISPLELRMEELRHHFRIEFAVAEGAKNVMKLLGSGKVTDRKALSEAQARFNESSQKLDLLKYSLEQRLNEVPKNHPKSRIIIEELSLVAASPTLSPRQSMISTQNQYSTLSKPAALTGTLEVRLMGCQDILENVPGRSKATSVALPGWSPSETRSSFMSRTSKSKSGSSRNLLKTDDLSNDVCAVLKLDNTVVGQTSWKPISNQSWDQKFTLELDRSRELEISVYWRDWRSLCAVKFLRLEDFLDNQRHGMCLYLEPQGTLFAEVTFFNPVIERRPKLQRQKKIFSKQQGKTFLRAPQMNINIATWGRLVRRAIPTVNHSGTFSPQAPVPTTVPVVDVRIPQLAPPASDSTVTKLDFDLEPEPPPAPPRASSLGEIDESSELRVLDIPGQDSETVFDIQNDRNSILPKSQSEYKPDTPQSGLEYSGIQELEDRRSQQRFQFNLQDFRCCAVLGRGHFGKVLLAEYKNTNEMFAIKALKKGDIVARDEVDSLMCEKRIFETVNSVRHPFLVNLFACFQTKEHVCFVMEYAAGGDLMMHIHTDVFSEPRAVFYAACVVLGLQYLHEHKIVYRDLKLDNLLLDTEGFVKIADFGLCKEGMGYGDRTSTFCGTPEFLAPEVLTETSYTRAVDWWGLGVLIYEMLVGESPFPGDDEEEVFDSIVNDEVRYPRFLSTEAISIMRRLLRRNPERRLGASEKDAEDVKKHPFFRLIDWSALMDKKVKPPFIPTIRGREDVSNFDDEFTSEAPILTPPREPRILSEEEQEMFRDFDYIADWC

[7] = target: Serine/threonine-protein kinase PLK1 (Homo sapiens, UniProt P53350); assay: Percentage PLK1 activity remaining in the presence of 2uM inhibitor
Chain of Serine/threonine-protein kinase PLK1 (P53350 whole entry): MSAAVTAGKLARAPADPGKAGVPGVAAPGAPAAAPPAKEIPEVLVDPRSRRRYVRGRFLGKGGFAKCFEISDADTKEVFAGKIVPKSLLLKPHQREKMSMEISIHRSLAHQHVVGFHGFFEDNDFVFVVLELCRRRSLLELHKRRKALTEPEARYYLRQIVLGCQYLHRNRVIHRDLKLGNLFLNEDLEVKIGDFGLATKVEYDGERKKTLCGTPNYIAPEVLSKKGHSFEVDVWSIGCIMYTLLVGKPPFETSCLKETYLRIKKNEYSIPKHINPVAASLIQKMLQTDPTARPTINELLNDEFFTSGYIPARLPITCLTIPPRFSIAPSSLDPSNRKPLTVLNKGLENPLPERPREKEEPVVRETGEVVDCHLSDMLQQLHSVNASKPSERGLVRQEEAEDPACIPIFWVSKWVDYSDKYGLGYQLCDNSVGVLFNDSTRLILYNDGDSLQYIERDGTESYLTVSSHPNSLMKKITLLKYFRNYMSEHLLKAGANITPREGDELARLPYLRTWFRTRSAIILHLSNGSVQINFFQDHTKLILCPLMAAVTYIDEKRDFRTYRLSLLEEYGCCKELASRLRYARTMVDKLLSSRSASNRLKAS

[8] = target: Ribosomal protein S6 kinase beta-1 (Homo sapiens, UniProt P23443); assay: Percentage S6K1 activity remaining in the presence of 2uM inhibitor
Chain of Ribosomal protein S6 kinase beta-1 (P23443 whole entry, looked up): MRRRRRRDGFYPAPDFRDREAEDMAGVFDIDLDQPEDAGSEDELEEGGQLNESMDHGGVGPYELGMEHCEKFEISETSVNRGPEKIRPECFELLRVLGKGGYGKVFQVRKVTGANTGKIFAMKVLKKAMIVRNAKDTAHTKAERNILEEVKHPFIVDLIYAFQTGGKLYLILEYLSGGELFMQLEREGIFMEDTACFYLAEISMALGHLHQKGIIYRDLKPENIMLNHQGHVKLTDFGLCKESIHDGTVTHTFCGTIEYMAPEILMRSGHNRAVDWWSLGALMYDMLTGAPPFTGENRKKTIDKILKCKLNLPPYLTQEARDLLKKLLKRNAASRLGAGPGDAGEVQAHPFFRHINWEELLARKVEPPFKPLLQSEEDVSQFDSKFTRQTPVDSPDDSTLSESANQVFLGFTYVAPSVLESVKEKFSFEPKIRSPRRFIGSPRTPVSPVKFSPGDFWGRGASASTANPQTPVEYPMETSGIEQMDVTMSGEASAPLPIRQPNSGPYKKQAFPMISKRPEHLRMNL

[9] = target: T3, MAP kinase-activated protein kinase 5 (Homo sapiens) (UniProt Q8IW41); assay: Percentage PRAK activity remaining in the presence of 2uM inhibitor
T3 sequence (whole entry): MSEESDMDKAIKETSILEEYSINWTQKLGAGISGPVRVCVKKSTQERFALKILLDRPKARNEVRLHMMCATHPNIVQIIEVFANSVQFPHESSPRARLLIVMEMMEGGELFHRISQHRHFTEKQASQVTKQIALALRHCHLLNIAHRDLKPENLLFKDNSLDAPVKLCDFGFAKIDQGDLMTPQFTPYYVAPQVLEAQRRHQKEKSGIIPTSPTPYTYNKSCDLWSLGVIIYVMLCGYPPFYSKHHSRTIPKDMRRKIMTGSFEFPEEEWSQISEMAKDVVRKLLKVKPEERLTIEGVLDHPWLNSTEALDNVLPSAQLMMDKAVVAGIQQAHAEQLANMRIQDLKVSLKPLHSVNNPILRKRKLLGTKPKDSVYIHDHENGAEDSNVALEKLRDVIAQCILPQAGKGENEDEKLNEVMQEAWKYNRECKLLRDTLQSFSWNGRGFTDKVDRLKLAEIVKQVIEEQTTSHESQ

[10] = target: Calcium/calmodulin-dependent protein kinase kinase 1 (Homo sapiens) (UniProt Q8N5S9); assay: Percentage CaMKKalpha activity remaining in the presence of 2uM inhibitor
Chain of Calcium/calmodulin-dependent protein kinase kinase 1 (Homo sapiens) (Q8N5S9 whole entry, looked up): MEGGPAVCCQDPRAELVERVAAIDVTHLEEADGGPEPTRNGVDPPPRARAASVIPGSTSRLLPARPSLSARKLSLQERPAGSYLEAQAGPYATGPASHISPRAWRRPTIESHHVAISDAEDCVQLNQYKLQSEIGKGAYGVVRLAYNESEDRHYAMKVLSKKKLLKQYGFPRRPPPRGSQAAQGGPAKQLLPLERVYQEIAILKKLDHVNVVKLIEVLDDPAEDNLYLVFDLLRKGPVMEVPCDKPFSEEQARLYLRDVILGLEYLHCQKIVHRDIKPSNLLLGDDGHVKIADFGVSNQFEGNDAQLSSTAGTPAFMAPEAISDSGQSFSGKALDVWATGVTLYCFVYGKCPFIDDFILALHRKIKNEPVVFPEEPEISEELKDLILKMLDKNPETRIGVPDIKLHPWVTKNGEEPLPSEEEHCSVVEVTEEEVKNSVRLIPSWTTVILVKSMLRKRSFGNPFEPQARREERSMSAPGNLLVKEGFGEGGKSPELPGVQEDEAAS

[11] = target: Calcium/calmodulin-dependent protein kinase kinase 2 (Homo sapiens) (UniProt Q96RR4); assay: Percentage CaMKKbeta activity remaining in the presence of 2uM inhibitor
Chain of Calcium/calmodulin-dependent protein kinase kinase 2 (Homo sapiens) (Q96RR4 2-588 limits assumed): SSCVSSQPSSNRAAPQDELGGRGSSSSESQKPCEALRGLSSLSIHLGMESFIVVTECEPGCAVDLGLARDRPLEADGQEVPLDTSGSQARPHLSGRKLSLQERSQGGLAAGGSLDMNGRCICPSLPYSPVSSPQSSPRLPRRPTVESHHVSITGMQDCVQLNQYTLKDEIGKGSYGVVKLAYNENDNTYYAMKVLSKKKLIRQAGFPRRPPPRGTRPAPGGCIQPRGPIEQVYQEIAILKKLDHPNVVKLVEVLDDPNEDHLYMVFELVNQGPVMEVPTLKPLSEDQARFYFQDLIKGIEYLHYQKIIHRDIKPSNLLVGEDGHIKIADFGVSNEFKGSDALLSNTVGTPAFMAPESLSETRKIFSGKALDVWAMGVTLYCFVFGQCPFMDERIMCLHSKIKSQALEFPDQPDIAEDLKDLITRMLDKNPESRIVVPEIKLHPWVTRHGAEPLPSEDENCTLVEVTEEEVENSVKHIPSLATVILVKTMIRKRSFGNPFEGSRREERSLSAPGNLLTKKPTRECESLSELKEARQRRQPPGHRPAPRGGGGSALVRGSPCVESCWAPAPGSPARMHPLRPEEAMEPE

[12] = target: T1, Mitogen-activated protein kinase 13 (Homo sapiens); assay: Percentage p38delta activity remaining in the presence of 2uM inhibitor
[13] = target: Mitogen-activated protein kinase 9 (Homo sapiens, UniProt P45984); assay: Percentage JNK2 activity remaining in the presence of 2uM inhibitor
Chain of Mitogen-activated protein kinase 9 (P45984 whole entry, looked up): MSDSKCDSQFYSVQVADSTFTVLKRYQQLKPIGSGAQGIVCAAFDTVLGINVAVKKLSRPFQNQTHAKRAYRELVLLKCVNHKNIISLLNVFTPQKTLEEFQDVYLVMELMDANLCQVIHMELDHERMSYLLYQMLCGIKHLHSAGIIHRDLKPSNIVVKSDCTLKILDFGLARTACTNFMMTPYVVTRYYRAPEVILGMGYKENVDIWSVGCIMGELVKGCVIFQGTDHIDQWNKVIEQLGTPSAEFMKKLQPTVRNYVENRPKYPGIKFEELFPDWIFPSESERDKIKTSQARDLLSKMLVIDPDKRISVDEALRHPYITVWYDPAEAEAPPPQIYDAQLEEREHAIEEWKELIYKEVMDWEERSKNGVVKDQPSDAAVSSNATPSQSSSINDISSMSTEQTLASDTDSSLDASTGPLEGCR

[14] = target: SRSF protein kinase 1 (Homo sapiens) (UniProt Q96SB4); assay: Percentage SRPK1 activity remaining in the presence of 25uM inhibitor
Chain of SRSF protein kinase 1 (Homo sapiens) (Q96SB4 whole entry): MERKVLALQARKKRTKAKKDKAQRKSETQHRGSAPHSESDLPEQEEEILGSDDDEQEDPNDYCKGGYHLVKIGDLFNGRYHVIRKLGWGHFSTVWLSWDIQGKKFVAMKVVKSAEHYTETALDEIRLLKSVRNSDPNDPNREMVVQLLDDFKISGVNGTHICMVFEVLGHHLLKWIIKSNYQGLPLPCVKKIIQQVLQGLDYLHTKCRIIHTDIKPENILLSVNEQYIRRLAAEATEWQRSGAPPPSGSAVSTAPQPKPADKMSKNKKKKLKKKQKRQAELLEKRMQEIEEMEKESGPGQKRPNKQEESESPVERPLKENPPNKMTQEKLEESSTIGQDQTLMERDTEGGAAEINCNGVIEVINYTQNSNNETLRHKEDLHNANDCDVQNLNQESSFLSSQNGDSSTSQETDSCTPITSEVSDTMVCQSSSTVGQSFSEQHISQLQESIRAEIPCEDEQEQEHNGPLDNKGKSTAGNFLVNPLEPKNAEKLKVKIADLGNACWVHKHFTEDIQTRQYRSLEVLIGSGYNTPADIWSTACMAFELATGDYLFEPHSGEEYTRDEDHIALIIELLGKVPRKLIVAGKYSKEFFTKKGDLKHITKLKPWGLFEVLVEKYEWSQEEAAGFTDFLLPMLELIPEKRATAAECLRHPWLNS

[15] = target: T4, 3-phosphoinositide-dependent protein kinase 1 (Homo sapiens) (UniProt O15530); assay: Percentage PDK1 activity remaining in the presence of 25uM inhibitor
T4 sequence (whole entry): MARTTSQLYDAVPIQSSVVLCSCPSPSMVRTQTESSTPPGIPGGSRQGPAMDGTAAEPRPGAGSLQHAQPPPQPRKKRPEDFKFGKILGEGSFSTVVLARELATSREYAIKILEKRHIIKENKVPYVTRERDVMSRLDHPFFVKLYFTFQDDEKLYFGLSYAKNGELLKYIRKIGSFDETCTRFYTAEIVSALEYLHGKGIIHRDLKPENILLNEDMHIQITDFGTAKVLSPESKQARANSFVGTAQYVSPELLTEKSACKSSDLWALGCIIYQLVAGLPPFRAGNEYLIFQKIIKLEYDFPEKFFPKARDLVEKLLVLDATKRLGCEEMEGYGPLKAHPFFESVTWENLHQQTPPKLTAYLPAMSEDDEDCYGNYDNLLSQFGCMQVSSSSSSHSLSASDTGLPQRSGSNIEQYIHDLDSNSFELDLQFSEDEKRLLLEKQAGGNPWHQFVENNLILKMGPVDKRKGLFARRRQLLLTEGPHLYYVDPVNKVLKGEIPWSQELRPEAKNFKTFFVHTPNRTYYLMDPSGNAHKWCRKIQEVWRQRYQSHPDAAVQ

For `Cc1ccc(-c2c(C(=O)CF)n(CCCO)c3ncnc(N)c23)cc1`, the IC50 [1] was 560 nM (antagonist), the Activity [2] was 79% and the Activity [3] was 103%. The Activity [4] was 92%, the Activity [5] was 85% and the Activity [6] was 83%.
`Cn1cc(C2=C(c3ccc(Cl)cc3Cl)C(=O)NC2=O)c2ccccc21` gave an Activity [7] of 62%, an Activity [8] of 86% and an Activity [9] of 90%. The Activity [10] was 85%, the Activity [11] was 82% and the Activity [12] was 81%. For the same compound, the Activity [13] was 85%.
Work on `NCCNS(=O)(=O)c1ccc(Cl)c2ccncc12` yielded an Activity [14] of 86% and an Activity [15] of 83%.
